Residues, ends and D or L forms follow the SMILES beside them. *: point of attachment. Cbz = O=C(OCc1ccccc1)*; NHOH = ON*
Experiments:
Experiment in all cases: biochemical
Atroxlysin-I (Atr-I) [1] = molecular target: T1, Atroxlysin-I (Atr-I) (Bothrops atrox, UniProt P85420)
Leucurolysin-a (Leuc-a) = Leucurolysin-a (Leuc-a) (Bothrops leucurus, UniProt P84907)
Atroxlysin-I (Atr-I) [2] = molecular target: T1, Atroxlysin-I (Atr-I); assay type: binding

Sequence of Leucurolysin-a (Leuc-a) (P84907 whole entry, looked up): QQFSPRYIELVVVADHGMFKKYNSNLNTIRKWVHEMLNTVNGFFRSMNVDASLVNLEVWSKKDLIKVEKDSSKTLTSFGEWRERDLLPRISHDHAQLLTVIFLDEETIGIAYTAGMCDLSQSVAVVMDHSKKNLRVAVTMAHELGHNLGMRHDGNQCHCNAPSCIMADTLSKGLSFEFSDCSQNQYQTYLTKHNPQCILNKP
T1 sequence (P85420 whole entry, added parts left off): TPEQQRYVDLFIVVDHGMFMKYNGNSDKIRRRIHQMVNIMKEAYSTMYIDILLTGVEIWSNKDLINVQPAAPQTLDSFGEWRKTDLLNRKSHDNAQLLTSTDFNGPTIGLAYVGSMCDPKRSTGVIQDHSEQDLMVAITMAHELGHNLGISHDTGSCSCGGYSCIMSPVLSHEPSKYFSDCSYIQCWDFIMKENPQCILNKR

| SMILES | Hill coef. (Atroxlysin-I (Atr-I) [1]) | IC50 (Atroxlysin-I (Atr-I) [1]) [µM] | Hill coef. (Leucurolysin-a (Leuc-a)) | IC50 (Leucurolysin-a (Leuc-a)) [µM] | Ki (Atroxlysin-I (Atr-I) [2]) [µM] | enthalpic contribution (Atroxlysin-I (Atr-I) [2]) [kcal/mol] | entropic contribution (Atroxlysin-I (Atr-I) [2]) [cal/K/mol] |
| --- | --- | --- | --- | --- | --- | --- | --- |
| CC1(C)SCCN(S(=O)(=O)c2ccc(Oc3ccncc3)cc2)[C@H]1C(=O)NO [PRI, prinomastat] | 0.77 | 0.16 ± 0.01 | 1.96 | 0.02 ± 0.01 | 0.07 ± 0.05 | -0.8 | 30 |
| CC(C)C[C@H](NC(=O)[C@@H]1CCCN1C(=O)OCc1ccccc1)C(=O)N[C@@H](C)C(=O)NO [COL, collagenase-I inhibitor] (Cbz-Pro-Leu-Ala-{NHOH}) | 2.28 | 8 ± 2 | 1.65 | 6 ± 2 |  |  |  |
| CNC(=O)[C@@H](NC(=O)[C@H](CC(C)C)[C@H](O)C(=O)NO)C(C)(C)C [MAR, marimastat] | 2.05 | 0.08 ± 0.01 | 0.78 | 0.69 ± 0.02 | 0.06 ± 0.01 | -1.5 | 28.2 |
| CNC(=O)[C@H](CCc1ccccc1)NC(=O)[C@H](CC(=O)NO)CC(C)C [MMP, mmp-III inhibitor] | 1.79 | 0.05 ± 0.01 | 1.34 | 0.36 ± 0.17 |  |  |  |
| CC(C)(NS(=O)(=O)c1ccc(Oc2ccc(F)cc2)cc1)C(=O)NO [CP4, CP471474] | 2.37 | 0.02 ± 0.01 | 0.55 | 0.21 ± 0.11 | 0.16 ± 0.01 | -3.8 | 18.4 |
| CNC(=O)[C@H](Cc1ccccc1)NC(=O)[C@H](CC(C)C)[C@H](CSc1cccs1)C(=O)NO [BAT, batimastat] | 0.85 | 0.05 ± 0.03 | 4.91 | 12 ± 1 |  |  |  |
